Reference: patent US20240409534A1, “CRYSTAL FORM OF METHYLPYRAZOLE-SUBSTITUTED PYRIDOIMIDAZOLE COMPOUND AND PREPARATION METHOD THEREFOR” (priority 2021, published 2024)
pIC50: −log10 of the molar value.

Key:
Ba/F3-TEL-VEGFR2 = assay: In vitro proliferation of BaF3 cell line, Ba/F3-TEL-VEGFR2; format: cell-based; conditions: Ba/F3-TEL-VEGFR2, 72 h
Experimental: The mother solution was prepared into a total of 9 concentration gradients (10.0000 mM, 2.5000 mM, 0.6250 mM, 0.1563 mM, 0.0391 mM, 0.0098 mM, 0.0024 mM, 0.0006 mM and 0.0002 mM) in a 4-fold dilution and stored in a 96-well plate (Beaver, Suzhou), while the same volume of DMSO solvent was used as a negative control. • 1. Cell suspension in logarithmic growth phase was taken and inoculated in a white 96-well cell culture plate (Corning 3917, NY, USA) with a volume of 95 μL per well (2000 cells/well). • 2. Diluted medium-compound mixture was added in a volume of 5 μL per well, respectively, and the final concentration of DMSO in Ba/F3-TEL-FLT1 (VEGFR1), Ba/F3-TEL-FLT4 (VEGFR3) and Ba/F3-TEL-VEGFR2 cells was 0.1%.
• 3. The plate was incubated in a 37° C., 5% CO2 incubator for 72 h. • 4. The proliferation inhibitory activity and data analysis of the compound by CellTiter-Glo method were the same as in Experimental embodiment 1.

[1] = Hygroscopicity study by dynamic vapor sorption (DVS); format: physicochemical; conditions: 25° C. and 80% RH
Experimental: Instrument model: SMS Intrinsic Dynamic Vapor Sorption Analyzer
Test conditions: Taking a sample (10 to 30 mg) and placing in a DVS sample dish for testing.
Detailed DVS parameters are as follows: • Temperature: 25° C. • Equilibration: dm/dt=0.002%/min (minimum: 10 min, maximum: 180 min) RH range: 0% RH to 95% RH to 0% RH • RH gradient: 10% (90% RH to 0% RH to 90% RH) • 5% (95% RH to 90% RH and 90% RH to 95% RH)

[2] = test system: gastric cancer cells SNU-16 with high expression of FGFR2; assay: Cell proliferation inhibition, CellTiter-Glo, SNU-16; format: cell-based; conditions: Homo sapiens, 72 h, SNU-16, cultured for 3 days
Excerpt: The compounds of the present disclosure can target and inhibit FGFR and VEGFR pathways, and inhibit tumor cell growth by inhibiting VEGF/VEGFR and FGF/FGFR signaling pathways. In this experiment, human non-small cell lung cancer cells NCI-H1581 with high expression of FGFR1, gastric cancer cells SNU-16 with high expression of FGFR2, and human bladder cancer cells RT112/84 with high expression of FGFR3 were selected. In this experiment, the inhibitory effect of compounds on cell proliferation was investigated by detecting the effect of the compounds of the present disclosure on the cell viability in vitro in the tumor cell lines NCI-H1581, SNU-16 and RT-112/84.
Regular passage, and cells in logarithmic growth phase were taken for plating.
• (1) Cells were stained with trypan blue and viable cells were counted. • (2) The cell concentration was adjusted to an appropriate concentration.
• (3) 90 μL of cell suspension per well was added to a culture plate, and cell-free culture solution was added to the blank control well. • (4) The plate was cultured overnight in a 37° C., 5% CO2 incubator with 100% relative humidity.
• (1) Preparation of 10× compound working solution: 78 μL of cell culture medium was added to a V-bottom 96-well plate, and 2 μL of compound was pipetted from a 400× compound storage plate and added to the cell culture medium of the 96-well plate. […]

Compound: CS(=O)(=O)O.Cn1cc(-c2ccn3c(-c4cc(NS(C)(=O)=O)nc(-c5ccc(F)cc5F)c4)cnc3c2)cn1
- Maximum inhibition (Ba/F3-TEL-VEGFR2): 99.99%
- Minimum inhibition (Ba/F3-TEL-VEGFR2): 8.23%
- pIC50 (Ba/F3-TEL-VEGFR2; Mus musculus, BaF3, read-out: Relative IC50): ~8.01
- hygroscopic weight gain ΔW [1]: 1.708%
- pIC50 [2]: 7.35
